Values quoted from earlier work in US10954336B2 (SCRUM Co., Ltd., priority 2017, dated 2021).

Conditions: comparison / conventional substances

Acidity: yes
SMILES: C[C@H](O)C(=O)O [L-lactic acid]
